# In patent US11072617B2, “Bicyclic sulfones and sulfoxides and methods of use thereof” (Genentech, Inc., priority 2017, dated 2021):
# Target: human RIP1 kinase domain (2-375) (Homo sapiens (Human), UniProt Q13546)
# Test: RIP1 kinase inhibition biochemical assay (Transcreener ADP, fluorescence polarization)
# Conditions: Ki app from tight-binding Morrison equation; 50 nM enzyme, 50 uM ATP, 2 hours incubation
# In short: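 Baculovirus-expressed human RIP1 kinase domain (2-375), 50 nM, incubated 2 h with compounds in pH 7.5 Hepes, 30 mM MgCl2, 50 uM ATP, 0.5% DMSO. ADP detected by Transcreener fluorescence-polarization tracer displacement; Ki^app from Morrison tight-binding fit.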
# human RIP1 kinase domain (2-375), sequence (Q13546 2-375): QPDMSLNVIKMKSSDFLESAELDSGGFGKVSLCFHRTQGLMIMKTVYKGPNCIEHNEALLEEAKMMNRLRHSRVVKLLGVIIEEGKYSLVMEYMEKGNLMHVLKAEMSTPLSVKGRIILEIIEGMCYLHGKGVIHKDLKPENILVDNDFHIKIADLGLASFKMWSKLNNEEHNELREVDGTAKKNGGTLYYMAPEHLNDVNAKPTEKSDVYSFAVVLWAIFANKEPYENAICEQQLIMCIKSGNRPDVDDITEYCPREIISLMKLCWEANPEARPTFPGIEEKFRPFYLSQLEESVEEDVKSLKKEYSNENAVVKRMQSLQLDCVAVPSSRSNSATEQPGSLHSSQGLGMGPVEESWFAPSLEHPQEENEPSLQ
row,Compound,Ki [nM]
1,"CC[S@@+]([O-])c1nc2n(n1)[C@H](c1ccccc1)C[C@@H]2F (single isomer, unassigned) [Example 188]",510
2,"O=S(=O)(c1nc2n(n1)[C@H](c1cccc(F)c1F)C[C@@H]2F)C1CC1F (stereo in doubt) [Example 216, (5S,7S)-5-(2,3-difluorophenyl)-7-fluoro-2-[(1S,2S)-2-fluorocyclopropyl]sulfonyl-6,7-dihydro-5H-pyrrolo[1,2-b][1,2,4]triazole]",< 5
3,"O=S(=O)(c1nc2n(n1)[C@H](c1cc(F)ccc1F)C[C@@H]2F)C1CC1 (single isomer, unassigned) [Example 37]",6
4,"N#CC[S@@+]([O-])c1cc2n(n1)[C@H](c1ccccc1)C[C@@H]2F (single isomer, unassigned) [Example 91]",150
5,"O=S(=O)(c1nc2n(n1)[C@H](c1ccccc1)C[C@@H]2F)C(F)F (single isomer, unassigned) [Example 23]",5
6,"O=S(=O)(c1nc2n(n1)[C@H](c1cc(F)ccc1F)C[C@@H]2F)[C@H]1CC1(F)F (single isomer, unassigned) [Example 126]",< 5
7,"O=S(=O)(c1nc2n(n1)[C@H](c1cc(F)cc(Cl)c1)C[C@@H]2F)C1CC1F (stereo in doubt) [Example 199, (5S,7S)-5-(3-chloro-5-fluoro-phenyl)-7-fluoro-2-[(1S,2S)-2-fluorocyclopropyl]sulfonyl-6,7-dihydro-5H-pyrrolo[1,2-b][1,2,4]triazole]",8
8,"O=S(=O)(c1nc2n(n1)[C@H](c1cccc(F)c1F)C[C@@H]2F)[C@H]1CC1(F)F [Example 121, (5S,7S)-2-(2,2-difluorocyclopropyl)sulfonyl-5-(2,3-difluorophenyl)-7-fluoro-6,7-dihydro-5H-pyrrolo[1,2-b][1,2,4]triazole]",< 5
9,"N#CC1(S(=O)(=O)c2nc3n(n2)[C@H](c2ccccc2)C[C@@H]3F)CC1 (single isomer, unassigned) [Example 157]",23
10,"N#Cc1cccc([C@@H]2C[C@H](F)c3nc(S(=O)(=O)C(F)F)nn32)c1 (single isomer, unassigned) [Example 192]",350
11,"O=S(=O)(c1nc2n(n1)[C@H](c1ccccc1)C[C@@H]2F)[C@@H]1CCC1(F)F [Example 171, (5S,7S)-7-fluoro-5-phenyl-2-[(1R)-2,2-difluorocyclobutyl]sulfonyl-6,7-dihydro-5H-pyrrolo[1,2-b][1,2,4]triazole]",< 5
12,"[O-][S@@+](CF)c1nc2n(n1)[C@H](c1cc(F)cc(F)c1)C[C@@H]2F (single isomer, unassigned) [Example 84]",< 5
13,"O=S(=O)(c1nc2n(n1)[C@H](c1ccccc1Cl)CC2)C(F)F [Example 16, (5S)-5-(2-chlorophenyl)-2-(difluoromethylsulfonyl)-6,7-dihydro-5H-pyrrolo[1,2-b][1,2,4]triazole]",56
14,"O=S(=O)(c1nc2n(n1)[C@H](c1cccc(Cl)c1F)C[C@@H]2F)C(F)F (single isomer, unassigned) [Example 65]",18
15,"CCS(=O)(=O)c1nc2n(n1)C(c1ccccc1)CC2 (racemic) [Example 2, 2-ethylsulfonyl-5-phenyl-6,7-dihydro-5H-pyrrolo[1,2-b][1,2,4]triazole]",864
16,"O=S(=O)(c1nc2n(n1)[C@H](c1cccc(F)c1)C[C@@H]2F)[C@@H]1C[C@H]1F (single isomer, unassigned) [Example 142]",< 5
17,"O=S(=O)(c1nc2n(n1)[C@@H](c1cccc(F)c1F)C[C@H]2F)C1CC1 (single isomer, unassigned) [Example 36]",880
18,"O=S(=O)(CC1CC1)c1nc2n(n1)[C@H](c1ccccc1)C[C@@H]2F (single isomer, unassigned) [Example 112]",60
19,"N#CCS(=O)(=O)c1nc2n(n1)[C@H](c1ccccc1)C[C@@H]2F (single isomer, unassigned) [Example 88]",32
20,"N#C[C@H]1C[C@@H](S(=O)(=O)c2nc3n(n2)[C@H](c2ccccc2)C[C@@H]3F)C1 [Example 210, Cis-3-[[(5S,7S)-7-fluoro-5-phenyl-6,7-dihydro-5H-pyrrolo[1,2-b][1,2,4]triazol-2-yl]sulfonyl]cyclobutanecarbonitrile]",55
21,"O=S(=O)(c1nc2n(n1)C(c1cc(F)cc(F)c1)CC2)C(F)F (racemic) [Example 175, 2-(Difluoromethylsulfonyl)-5-(3,5-difluorophenyl)-6,7-dihydro-5H-pyrrolo[1,2-b][1,2,4]triazole]",220
22,"[O-][S@@+](CF)c1nc2n(n1)[C@H](c1c(F)cccc1F)C[C@@H]2F (single isomer, unassigned) [Example 80]",< 5
23,"[O-][S+](c1nc2n(n1)[C@H](c1ccccc1)C[C@@H]2F)C1CC1 (stereo partly drawn) [Example 27, (5S,7S)-2-cyclopropylsulfinyl-7-fluoro-5-phenyl-6,7-dihydro-5H-pyrrolo[1,2-b][1,2,4]triazole]",33

row,Compound,Ki [nM]
1,"COCS(=O)(=O)c1nc2n(n1)[C@H](c1ccccc1)C[C@@H]2F (single isomer, unassigned) [Example 116]",170
2,"O=S(=O)(c1nc2n(n1)[C@H](c1ccccc1Cl)C[C@@H]2F)[C@@H]1CC1(F)F (single isomer, unassigned) [Example 125]",< 5
3,"[O-][S@@+](c1nc2n(n1)[C@H](c1ccccc1Cl)CC2)C(F)F [Example 17, (5S)-5-(2-chlorophenyl)-2-[(S)-difluoromethylsulfinyl]-6,7-dihydro-5H-pyrrolo[1,2-b][1,2,4]triazole]",50
4,"O=S(=O)(c1nc2n(n1)[C@H](c1ccc(F)c(F)c1)C[C@@H]2F)C1CC1 (single isomer, unassigned) [Example 44]",21
5,"O=S(=O)(c1nc2n(n1)[C@H](c1ccccc1Cl)C[C@@H]2F)[C@H]1CC1(F)F (single isomer, unassigned) [Example 120]",< 5
6,"CC(C)[S@@+]([O-])c1nc2n(n1)[C@H](c1ccccc1)C[C@@H]2F (single isomer, unassigned) [Example 187]",8
7,"O=S(=O)(c1nc2n(n1)[C@H](c1ccccc1F)C[C@@H]2F)C1CC1F (stereo in doubt) [Example 205, (5S,7S)-7-fluoro-5-(2-fluorophenyl)-2-[(1S,2S)-2-fluorocyclopropyl]sulfonyl-6,7-dihydro-5H-pyrrolo[1,2-b][1,2,4]triazole]",20
8,"[O-][S@@+](CF)c1nc2n(n1)[C@H](c1cc(F)ccc1F)C[C@@H]2F (single isomer, unassigned) [Example 78]",< 5
9,"O=S(=O)(c1nc2n(n1)[C@H](c1cccc(F)c1F)C[C@@H]2F)[C@H]1C[C@H](F)C1 [Example 204, (5S,7S)-5-(2,3-difluorophenyl)-7-fluoro-2-trans-(3-fluorocyclobutyl)sulfonyl-6,7-dihydro-5H-pyrrolo[1,2-b][1,2,4]triazole]",16
10,"[O-][S+](c1nc2n(n1)[C@H](c1cc(F)cc(F)c1)CC2)C(F)F (stereo in doubt) [Example 173, (5S)-2-[(S)-difluoromethylsulfinyl]-5-(3,5-difluorophenyl)-6,7-dihydro-5H-pyrrolo[1,2-b][1,2,4]triazole]",19
11,"O=S(=O)(c1nc2n(n1)[C@H](c1ccccc1)C[C@@H]2F)[C@H]1C[C@@H](CF)C1 (single isomer, unassigned) [Example 169]",52
12,"CC(C)[S+]([O-])c1nc2n(n1)[C@H](c1ccccc1)C[C@@H]2F (stereo partly drawn) [Example 109, (5S,7S)-7-fluoro-2-isopropylsulfinyl-5-phenyl-6,7-dihydro-5H-pyrrolo[1,2-b][1,2,4]triazole]",19
13,"O=S(=O)(c1nc2n(n1)[C@H](c1ccccc1)C[C@@H]2F)[C@H]1C[C@@H](O)C1 (single isomer, unassigned) [Example 225]",300
14,"O=S(=O)(c1nc2n(n1)[C@H](c1ccccc1)C[C@@H]2F)C1CC12CC2 (stereo partly drawn) [Example 170, (5S,7S)-7-fluoro-5-phenyl-2-spiro[2.2]pentan-2-ylsulfonyl-6,7-dihydro-5H-pyrrolo[1,2-b][1,2,4]triazole]",< 5
15,"[O-][S+](CC(F)F)c1nc2n(n1)[C@H](c1ccccc1)C[C@@H]2F (stereo partly drawn) [Example 148, (5S,7S)-2-(2,2-difluoroethylsulfinyl)-7-fluoro-5-phenyl-6,7-dihydro-5H-pyrrolo[1,2-b][1,2,4]triazole]",7
16,"O=S(=O)(c1nc2n(n1)[C@H](c1cccc(F)c1F)C[C@@H]2F)C1CC1 (single isomer, unassigned) [Example 40]",5
17,"O=S(=O)(c1nc2n(n1)[C@H](c1ccccc1F)C[C@@H]2F)C1CC1F (stereo in doubt) [Example 206, (5S,7S)-7-fluoro-5-(2-fluorophenyl)-2-[(1R,2R)-2-fluorocyclopropyl]sulfonyl-6,7-dihydro-5H-pyrrolo[1,2-b][1,2,4]triazole]",10
18,"O=S(=O)(c1nc2n(n1)[C@H](c1ccccc1)C[C@@H]2F)[C@@H]1C[C@H]1F (single isomer, unassigned) [Example 145]",5
19,"N#CC[S@+]([O-])c1nc2n(n1)[C@H](c1ccc(F)cc1)C[C@@H]2F (single isomer, unassigned) [Example 99]",530
20,"O=S(=O)(c1nc2n(n1)[C@H](c1cc(Cl)ccc1F)C[C@@H]2F)C1CC1F (stereo in doubt) [Example 207, (5S,7S)-5-(5-chloro-2-fluoro-phenyl)-7-fluoro-2-[(1S,2S)-2-fluorocyclopropyl]sulfonyl-6,7-dihydro-5H-pyrrolo[1,2-b][1,2,4]triazole]",37
21,"COCCS(=O)(=O)c1nc2n(n1)[C@H](c1ccccc1)C[C@@H]2F (single isomer, unassigned) [Example 224]",180
22,"O=S(=O)(c1nc2n(n1)[C@H](c1c(F)cccc1F)C[C@@H]2F)C(F)F (single isomer, unassigned) [Example 58]",34
23,"O=S(=O)(c1nc2n(n1)[C@H](c1cccc(F)c1)C[C@@H]2F)C1CC1 (single isomer, unassigned) [Example 48]",< 5
